Test results taken from patent US6875569B2, “Modified lepidopteran receptors and hybrid multifunctional proteins for use in transcription and regulation of transgene expression” (The Salk Institute for Biological Studies, priority 1997, dated 2005).
Entries after “also recorded” stand apart in the source; their conditions may differ. Like-named read-outs stand apart in the source and are kept apart here.

Key:
VbR = test: Transgene regulation in stably infected rat fibroblasts (MARSHA reporter, VbR retroviral vector); type: cell-based, bombyx mori; details: 0.25 μg/ml teb vs higher levels; VbR-luc clonal fibroblast line and VbR-GH clonal line, FIG. 3; listed as teb
[1] = tested on: TTMT (TTA-VbR fusion protein); test: EcRE-Luc reporter co-transfected with TTMT; type: cell-based; details: FIG. 2C
Experimental: (§1) Tebufenozide is administered to cells co-transfected with nucleic acids encoding receptors: LINX (which encodes the tet-transactivator (TTA)), VbR, TTMT (which encodes the TTA-VbR fusion protein, and TTMT-2V which is like TTMT, but with two VP16 t-domains), to assay for EcRELuc activity (FIG. 2C). Note that teb stimulates VbR, and the TTMT fusions, but has no action on TTA (LINX). The same experiment as that described for 2C, only with a TetO-Luc reporter which responds only to TTA or fusion proteins is summarized in FIG. 2D. […] Note that in this experiment, TTMT and TTMT-2V work better than TTA only (LINX) to stimulate the TetO-luc promoter/reporter. […] An experiment on CV-1 cells transfected with TTMT and two reporters: 6TetO-luc and 4-EcRE-bgalactosidase show both promoters could be simultaneously influenced by the presence or absence of both ligands (FIG. 2E).
(§2) Transient transfections are performed by calcium-phosphate coprecipitation employing standard methods (see Sambrook et al., in Molecular Cloning: A Laboratory Manual. Cold Spring Harbor Press, New York, N.Y. (1989)). All tissue culture experiments are performed using DMEM 10% FBS in a 10% CO2 incubator unless otherwise specified. […] After 40 additional hours of incubation, cells are harvested and luciferase activity measured in an analytical bioluminescence photometer. […]

[2] = tested on: mammals and other non-insect species; details: extensive testing in animal hosts; previously reported; cited from earlier work
[3] = tested on: modified bombyx hormone receptor (VbR); type: cell-based, bombyx mori
Experimental: (§3) Transient transfection experiments in CV-1 cells or 293 cells using modified drosophila ecdysone receptor (VdEcR) or modified bombyx hormone receptor (VbR) with or without dimer partners as described. Luc activity is examined 40 hours after transfection and stimulation with ligand (FIG. 2A). Both receptors are assayed in CV-1 cells with 1 μM MurA and no exogenous dimer partner. […] Both receptors are also assayed in the presence of 5 μg/ml tebufenozide (FIG. 2B). […] Both receptors are also assayed with and without dimer partners. VbR was stimulated with 5 μg/ml tebufenozide and VdEcR was stimulated with 1 μM MurA. […] VbR, with no exogenous dimer partner, has an extremely low base-line which is stimulated 200-300 fold by ligand. Note also from this experiment that VdEcR tends to have a much higher baseline than VbR without dimer partner.
as §1
Transient transfections are performed by calcium-phosphate coprecipitation employing standard methods (see Sambrook et al., in Molecular Cloning: A Laboratory Manual. Cold Spring Harbor Press, New York, N.Y. (1989)). All tissue culture experiments are performed using DMEM 10% FBS in a 10% CO2 incubator unless otherwise specified. All transfections are performed in triplicate in 24-well Costar plates using CV-1 cells at an approximately 5×10^4 plating density. Immediately following transfection, 1 μm ligand in 20% EtOH/PBS is added to wells. After 40 additional hours of incubation, cells are harvested and luciferase activity measured in an analytical bioluminescence photometer. Cell extracts are simultaneously examined for LacZ activity of the internal control by standard methods. Bar graph levels represent relative luciferase activity after correction using internal control values.

tet-transactivator (TTA) = biological target: T1, tet-transactivator (TTA) (Escherichia coli, UniProt P04483); test: EcRE-Luc reporter co-transfected with LINX; type: cell-based; details: FIG. 2C
T1 construct: expressed in transfected cells; host or cells: CV-1 cells
T1 sequence (P04483 whole entry, added parts left off): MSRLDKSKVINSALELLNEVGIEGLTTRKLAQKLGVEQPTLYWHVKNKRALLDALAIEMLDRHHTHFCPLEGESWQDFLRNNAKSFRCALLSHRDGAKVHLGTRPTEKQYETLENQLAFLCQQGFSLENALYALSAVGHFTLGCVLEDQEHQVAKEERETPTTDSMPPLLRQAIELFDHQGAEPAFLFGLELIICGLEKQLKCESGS
Experimental: as §1, §2

[4] = tested on: TTMT-2V (TTMT with two VP16 t-domains); test: EcRE-Luc reporter co-transfected with TTMT-2V; type: cell-based; details: FIG. 2C
Experimental: as §1, §2

[5] = tested on: modified drosophila ecdysone receptor (VdEcR); type: cell-based
Experimental: as §3, §2

Compound | stimulation of full transgene activity, dose comparison (VbR) | EcRE-Luc activity with TTMT [1] | toxicity to mammals [2] | stimulation of VbR, side-by side comparison ([3]; 2.5 μg/ml teb) | stimulation of VbR over base-line by ligand ([3]; 5 μg/ml tebufenozide, VbR with no exogenous dimer partner, experiment with and without dimer partners) | effect of ligand on VbR in the presence of exogenous dimer partner ([3]; 5 μg/ml tebufenozide, exogenous dimer partner (RXR, Usp) present, VbR constitutively activated) | induction of Luc activity by VbR ([3]; 5 μg/ml tebufenozide, no exogenous dimer partner, 40 hours after transfection) | EcRE-Luc activity with VbR ([3]; EcRE-Luc reporter, FIG. 2C) | EcRE-Luc activity with TTA (LINX) (tet-transactivator (TTA)) | EcRE-Luc activity with TTMT-2V [4] | response of drosophila EcR (Luc activity) ([5]; 5 μg/ml tebufenozide) | stimulation of VbR, side-by side comparison ([3]; 1 μM MurA) | response of bR (Luc activity) ([3]; CV-1 cells, 1 μM MurA, no exogenous dimer partner) | dimer partner requirement for VdEcR stimulation ([5]; 1 μM MurA, with and without dimer partners)
CCc1ccc(C(=O)NN(C(=O)c2cc(C)cc(C)c2)C(C)(C)C)cc1 [tebufenozide] | as effective at stimulating full activity as higher levels; also recorded: as effective as higher levels for stimulating full activity | stimulates | very low toxicity | effective at stimulating VbR | 200-300 fold | inhibited by ligand addition | greater than 200 fold | stimulates | no action | stimulates | does not respond at all, and in fact, decreases slightly; also recorded: responds weakly, if at all |  |  | 
CC(C)CC[C@@H](O)[C@](C)(O)[C@H]1CC[C@@]2(O)C3=CC(=O)[C@]4(O)C[C@@H](O)[C@@H](O)C[C@]4(C)[C@H]3[C@H](O)C[C@]12C [MurA, muristerone A] |  |  |  |  |  |  |  |  |  |  |  | effective at stimulating VbR | responds | RXR and Usp are necessary for VdEcR
